The values below are quoted from earlier work in US8361760B2, “Microbial production of 3-hydroxyacids from glucose and glycolate” (Massachusetts Institute of Technology, priority 2009, dated 2013).

The subject of the data set is CoA-transferase. Also on record: Relative activity: concentration or dose not given beside the values. The following applies: CoA-transferase activity with carboxylic acid added; for Relative activity: relative to None = 100; for Specific Activity: None = 34.1 units/mg.

For `O=C(O)/C=C/CC(=O)O` [(E)-Glutaconate], the Relative activity is recorded as 94% and the “Specific Activity” value was 32.1 units/mg.

Consider `O=C(O)CC[C@@H](O)C(=O)O` [(R)-2-Hydroxyglutarate], for which the Relative activity is recorded as 87% and the “Specific Activity” value was 29.6 units/mg.

Regarding `C[C@@H](O)C(=O)O` [(R)-Lactate], the Relative activity is reported as 27% and the “Specific Activity” value is 9.1 units/mg.

For `C[C@H](O)C(=O)O` [(S)-Lactate], the Relative activity is 46% and the “Specific Activity” value is listed as 15.8 units/mg.

As for `C=CC(=O)O` [Acrylate], the Relative activity is recorded as 37% and the “Specific Activity” value is given as 12.7 units/mg.

In the case of `O=C(O)/C=C/C(=O)O` [Fumarate], the Relative activity is on record as 96% and the “Specific Activity” value is given as 32.8 units/mg.

Regarding `CCC(=O)O` [Propionate], the Relative activity is listed as 20% and the “Specific Activity” value was 6.8 units/mg.

Regarding `O=C(O)CCC(=O)O` [Succinate], the Relative activity is given as 87% and the “Specific Activity” value is given as 29.6 units/mg.
